Where “and” joins values, the source holds several entries; their conditions need not be identical. Identical values can stand only once.
Legend:
[1] = biological target: T1, human FAAH (Fatty Acid Amide Hydrolase) (Homo sapiens, UniProt O00519); experiment: FAAH enzyme assay on CHO cell lysate expressing human FAAH (human LY), AAMCA fluorescent substrate; assay type: biochemical; conditions: human FAAH_CHO cell lysate
T1 construct: The full length FAAH was subcloned into the mammalian expression vector, pcDEF.neo, using XbaI and EcoRI restriction sites; expressed in transfected cells
T1 sequence (O00519 1-579): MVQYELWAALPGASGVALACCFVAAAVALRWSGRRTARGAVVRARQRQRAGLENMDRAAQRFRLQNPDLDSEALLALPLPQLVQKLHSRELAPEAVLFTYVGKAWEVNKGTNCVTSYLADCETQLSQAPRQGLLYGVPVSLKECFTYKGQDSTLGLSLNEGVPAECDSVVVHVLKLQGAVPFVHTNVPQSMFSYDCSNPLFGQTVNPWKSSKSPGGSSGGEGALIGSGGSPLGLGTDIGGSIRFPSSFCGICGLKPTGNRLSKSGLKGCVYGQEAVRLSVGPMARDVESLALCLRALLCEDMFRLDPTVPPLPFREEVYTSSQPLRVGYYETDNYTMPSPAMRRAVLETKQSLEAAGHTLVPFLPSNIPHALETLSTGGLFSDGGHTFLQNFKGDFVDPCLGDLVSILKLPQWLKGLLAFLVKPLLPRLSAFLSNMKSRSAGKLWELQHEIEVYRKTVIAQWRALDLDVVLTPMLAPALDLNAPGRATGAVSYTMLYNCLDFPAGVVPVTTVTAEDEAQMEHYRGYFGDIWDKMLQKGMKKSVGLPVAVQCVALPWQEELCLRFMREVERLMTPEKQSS
Outline: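 CHO cell lysate expressing full-length human FAAH, preincubated with compound 15 min at 22-25° C. in pH 8.0 phosphate buffer with 200 mM KCl and 0.1% fatty-acid-free BSA. 1 μM AAMCA final, 1-3 h at room temperature; 7-amino-4-methylcoumarin release read by fluorescence (Ex 360, Em 460 nm).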

[2] = biological target: T1, human FAAH (Fatty Acid Amide Hydrolase); experiment: FAAH whole cell assay on CHO cells expressing human FAAH (human WC), AAMCA fluorescent substrate; assay type: cell-based; conditions: human FAAH_CHO whole cell
Outline: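 CHO cells stably expressing full-length human FAAH, harvested with enzyme-free dissociation and resuspended at 4×10^4 cells/assay (96-well) or 1×10^4 (384-well) in 50 mM phosphate pH 8.0, 1 mM EDTA, 200 mM KCl, 0.2% glycerol, 0.1% BSA.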

| Structure (SMILES) | IC50 [1] | IC50 [2] |
| --- | --- | --- |
| OC1CC=C(c2[nH]c3ncccc3c2Sc2ccc(Cl)cn2)CC1 (stereo not drawn) [Example A28] | 11.8 nM and 20.5 nM | 31.6 nM and 60.4 nM |
| O=C(N[C@H]1CC[C@H](O)CC1)c1[nH]c2ncccc2c1Sc1ccc(Cl)cc1 [Example C4, 3-[(4-chlorophenyl)sulfanyl]-N-(trans-4-hydroxycyclohexyl)-1H-pyrrolo[2,3-b]pyridine-2-carboxamide] | 7.64 nM | 48 nM |
| O=C(NC1CCCCC1)c1[nH]c2ncccc2c1Sc1ccc(Cl)cc1 [Example C17] | 30.4 nM | 101 nM |
| O=C1CCC(c2[nH]c3ncccc3c2Sc2ccc(Cl)cc2)CC1 [Example D7, 4-{3-[(4-chlorophenyl)sulfanyl]-1H-pyrrolo[2,3-b]pyridin-2-yl}cyclohexanone] | 14.2 nM | 22.8 nM |
| O=C(NCC(O)C1CCCCC1)c1[nH]c2ncccc2c1Sc1ccc(Cl)cc1 (stereo not drawn) [Example C10] | 660 nM | 1990 nM |
| O=C(Nc1ccc2c(c1)OCCO2)c1[nH]c2ncccc2c1Sc1ccc(Cl)cc1 [Example C14] | 7.43 nM | 28.5 nM |
| COc1ccc(-c2[nH]c3ncccc3c2Sc2ccc(Cl)cc2)c(OC)n1 [Example B18] | 23.2 nM | 124 nM |
| Clc1ccc(Sc2c(-c3cnn4c3CCC4)[nH]c3ncccc23)cc1 [Example B31] | 113 nM | 686 nM |
| Clc1ccc(Sc2c(-c3ccc4c(c3)OCCO4)[nH]c3ncccc23)nc1 [Example B13] | 2.89 nM | 13 nM |
| FC(F)(F)c1ccc(/C=C/c2[nH]c3ncccc3c2Sc2ccc(Cl)cc2)cc1 [Example B39] | 370 nM | 370 nM |
| CN(C)S(=O)(=O)c1ccc(-c2[nH]c3ncccc3c2Sc2ccc(Cl)cc2)cc1 [Example A11] | 6.38 nM | 84.1 nM |
| OC(c1ccc(-c2[nH]c3ncccc3c2Sc2ccc(Cl)cn2)cc1)C(F)(F)F (stereo not drawn) [Example A25] | 37.6 nM | 147 nM |
| CC(C)(O)c1ccc(-c2[nH]c3ncccc3c2Sc2ccc(Cl)cn2)cc1 [Example A13] | 17.8 nM | 73.2 nM |
| NC1CC=C(c2[nH]c3ncccc3c2Sc2ccc(Cl)cc2)CC1 (stereo not drawn) [Example B46] | 114 nM | 1410 nM |
| CCNC(=O)C1CC=C(c2[nH]c3ncccc3c2Sc2ccc(Cl)cc2)CC1 (stereo not drawn) [Example B48] | 9.5 nM | 29.1 nM |
| N#Cc1cscc1-c1[nH]c2ncccc2c1Sc1ccc(Cl)cc1 [Example B32] | 94.8 nM | 438 nM |
| CC1(C)CCC(NC(=O)c2[nH]c3ncccc3c2Sc2ccc(Cl)cc2)CC1 [Example C9] | 251 nM | 773 nM |
| CC(C)(C)NS(=O)(=O)c1ccc(-c2[nH]c3ncccc3c2Sc2ccc(Cl)cc2)cc1 [Example A22] | 117 nM | 370 nM |

| Structure (SMILES) | IC50 [1] | IC50 [2] |
| --- | --- | --- |
| O=C1Cc2cc(-c3[nH]c4ncccc4c3Sc3ccc(Cl)cn3)ccc2N1 [Example A33] | 134 nM | 405 nM |
| O=C(NCCO)C1CC=C(c2[nH]c3ncccc3c2Sc2ccc(Cl)cc2)CC1 (stereo not drawn) [Example B49] | 23.8 nM | 66.3 nM |
| NCc1ccc(-c2[nH]c3ncccc3c2Sc2ccc(Cl)cc2)cc1 [Example A30] | 56.3 nM | 833 nM |
| CC(C)(O)/C=C/c1[nH]c2ncccc2c1Sc1ccc(Cl)cc1 [Example B34] | 213 nM | 1110 nM |
| O[C@H]1CC[C@H](c2[nH]c3ncccc3c2Sc2ccc(Cl)cn2)CC1 [Example D6, trans-4-{3-[(5-chloropyridin-2-yl)sulfanyl]-1H-pyrrolo[2,3-b]pyridin-2-yl}cyclohexanol] | 13.4 nM | 32.7 nM |
| FC(F)Oc1ccc(-c2[nH]c3ncccc3c2Sc2ccc(Cl)cc2)cc1 [Example B45] | 3.28 nM | 15.7 nM |
| CC(=O)c1ccc(-c2[nH]c3ncccc3c2Sc2ccc(Cl)cc2)s1 [Example B29] | 10.2 nM | 41.1 nM |
| Oc1ccc(-c2[nH]c3ncccc3c2Sc2ccc(Cl)cc2)cc1 [Example A23] | 1.65 nM | 16.4 nM |
| CC(C1COc2ccccc2O1)N(C)C(=O)c1[nH]c2ncccc2c1Sc1ccc(Cl)cc1 (stereo not drawn) [Example C13] | 256 nM | 2630 nM |
| C[S+]([O-])c1ccc(-c2[nH]c3ncccc3c2Sc2ccc(Cl)cn2)cn1 (stereo not drawn) [Example A15] | 44.1 nM | 34.4 nM |
| OCC1CC=C(c2[nH]c3ncccc3c2Sc2ccc(Cl)cc2)CC1 (stereo not drawn) [Example B50, (4-{3-[(4-chlorophenyl)sulfanyl]-1H-pyrrolo[2,3-b]pyridin-2-yl}cyclohex-3-en-1-yl)methanol] | 3.06 nM | 8.04 nM |
| Cc1noc(C)c1-c1[nH]c2ncccc2c1Sc1ccc(Cl)cc1 [Example B30] | 208 nM | 1110 nM |
| CSc1ccc(-c2[nH]c3ncccc3c2Sc2ccc(Cl)cc2)cc1 [Example A10] | 0.872 nM | 7.67 nM |
| COc1ccc(NC(=O)c2[nH]c3ncccc3c2Sc2ccc(Cl)cc2)cn1 [Example C8] | 42.9 nM | 272 nM |
| O=C(Nc1ccc2[nH]ncc2c1)c1[nH]c2ncccc2c1Sc1ccc(Cl)cc1 [Example C16] | 9.79 nM | 18.1 nM |
| CC(C)(O)c1ccc(-c2[nH]c3ncccc3c2Sc2ccc(Cl)cc2)cc1 [Example A31] | 13.2 nM | 42 nM |
| CSc1ccc(-c2[nH]c3ncccc3c2Sc2ccc(Cl)cc2)cn1 [Example A16] | 3.08 nM | 24 nM |

Now from value to molecule:

| IC50 [1] | IC50 [2] | Structure (SMILES) |
| --- | --- | --- |
| 18.5 nM | 70.6 nM | Cn1cccc2c(Sc3ccc(Cl)cc3)c(-c3ccc(C(O)C(F)(F)F)cc3)nc1-2 (stereo not drawn) [Example E10] |
| 181 nM | 1210 nM | Cn1cccc2c(Sc3ccc(Cl)cn3)c(C3=CCC(O)CC3)nc1-2 (stereo not drawn) [Example E19] |
| 148 nM | 252 nM | Cn1cccc2c(Sc3ccc(Cl)cn3)c([C@H]3CC[C@@H](O)CC3)nc1-2 [Example E23] |
| 2030 nM | 8490 nM | Cn1cccc2c(Sc3ccc(Cl)cn3)c([C@H]3CC[C@H](O)CC3)nc1-2 [Example E16] |
| 12.4 nM | 72.7 nM | COc1cc(-c2nc3n(C)cccc-3c2Sc2ccc(Cl)cc2)cnc1OC [Example E8] |
| 9.7 nM | 23.4 nM | Cn1cccc2c(Sc3ccc(Cl)cc3)c(-c3ccc4c(c3)OCCO4)nc1-2 [Example E2, 3-[(4-chlorophenyl)sulfanyl]-2-(2,3-dihydro-1,4-benzodioxin-6-yl)-7-methyl-7H-pyrrolo[2,3-b]pyridine] |
| 106 nM | 186 nM | Cn1c(-c2ccc(C(O)C(F)(F)F)cc2)c(Sc2ccc(Cl)cc2)c2cccnc21 (stereo not drawn) [Example E33] |
| 5870 nM | 10000 nM | OC(c1ccccc1)c1[nH]c2ncccc2c1Sc1ccc(Cl)cc1 (stereo not drawn) [Example J4, {3-[(4-chlorophenyl)sulfanyl]-1H-pyrrolo[2,3-b]pyridin-2-yl}(phenyl)methanol] |
| 818 nM | 8410 nM | COc1ccc(C(O)c2[nH]c3ncccc3c2Sc2ccc(Cl)cc2)cc1 (stereo not drawn) [Example J10] |
| 260 nM | 1140 nM | Clc1ccc(Sc2c(CNC3CCOCC3)[nH]c3ncccc23)cc1 [Example J7] |
| 695 nM | 5890 nM | CC(C)C(O)c1[nH]c2ncccc2c1Sc1ccc(Cl)cc1 (stereo not drawn) [Example J11] |
| 26.6 nM | 71.6 nM | Cn1cccc2c(Sc3ccc(Cl)cn3)c(-c3ccc4c(c3)OCO4)nc1-2 [Example E11] |
| 6.51 nM | 16.6 nM | Cn1c(-c2ccc3c(c2)OCCO3)c(Sc2ccc(Cl)cc2)c2cccnc21 [Example E3, 3-[(4-chlorophenyl)sulfanyl]-2-(2,3-dihydro-1,4-benzodioxin-6-yl)-1-methyl-1H-pyrrolo[2,3-b]pyridine] |
| 289 nM | 1040 nM | OCCn1cccc2c(Sc3ccc(Cl)cn3)c(-c3ccc4c(c3)OCO4)nc1-2 [Example E20] |
| 171 nM | 1340 nM | Cn1cccc2c(Sc3ccc(Cl)cc3)c(C(=O)Nc3ccc4c(c3)OCCO4)nc1-2 [Example E18] |
| 31.7 nM | 115 nM | OCCn1c(-c2ccc3c(c2)OCO3)c(Sc2ccc(Cl)cc2)c2cccnc21 [Example E35] |
| 8.07 nM | 53.9 nM | Cn1cccc2c(Sc3ccc(Cl)cc3)c(C3=CCC(O)CC3)nc1-2 (stereo not drawn) [Example E5] |
| 15.4 nM | 82.5 nM | Cn1cccc2c(Sc3ccc(Cl)cn3)c(-c3ccc4[nH]ncc4c3)nc1-2 [Example E9] |
| 132 nM | 400 nM | Clc1ccc(Sc2c(CNCc3ccccc3)[nH]c3ncccc23)cc1 [Example J6, N-benzyl-1-{3-[(4-chlorophenyl)sulfanyl]-1H-pyrrolo[2,3-b]pyridin-2-yl}methanamine] |

Reference: patent publication US20130059850A1, “AZA-INDOLE DERIVATIVES USEFUL AS MODULATORS OF FAAH” (MERCK SHARP & DOHME CORP., priority 2010, published 2013)
